Data published in patent US8669257B2, “Phenazine derivatives and uses thereof as potassium channel modulators” (The Johns Hopkins University, priority 2007, dated 2014).
Entries after “also recorded” stand apart in the source; their conditions may differ. Like-named read-outs stand apart in the source and are kept apart here.

What was measured:
[1] = test system: IL-2 production in Jurkat T-cells; experiment: IL-2 secreted from stimulated Jurkat T-cells (ELISA); format: cell-based; conditions: Homo sapiens; PMA/thapsigargin-stimulated Jurkat T-cells, FIG. 1B, n=6
Description: Jurkat E6.1 T-cells (1×10^5 in 180 μl) were seeded into 96-well plates. Cells in each well were treated with different concentrations of clofazimine for 1 h before 1 μM ionomycin and 40 nM PMA were added. The incubation was continued for 2 days. The plates were centrifuged at 1,200×g for 5 min, and the supernatant from each well was collected followed by ELISA detection of IL-2. The primary antibody, biotinylated secondary antibody and HRP conjugated avidin were purchase from BD/Pharmingen.

NFAT luciferase reporter = NFAT luciferase reporter assay in Jurkat T-cells; format: cell-based; conditions: Homo sapiens, PMA/ionomycin, FIG. 1C, n=6
[2] = test system: NF-κB luciferase reporter; experiment: NF-κB luciferase reporter assay in Jurkat T-cells; format: cell-based, human; conditions: FIG. 1C
AP-1 luciferase reporter = AP-1 luciferase reporter assay in Jurkat T-cells; format: cell-based, human; conditions: PMA/ionomycin, high concentrations (>1 μM for clofazimine)
[3] = test system: calcineurin-NFATc2 interaction; experiment: GST-NFATc2 pull-down of calcineurin; format: binding
[4] = biological target: T1, calcineurin-NFATc2 interaction (Homo sapiens, UniProt P16298+Q13469, H160N); experiment: Mammalian two-hybrid assay of calcineurin and NFATc2 in Jurkat T-cells; format: cell-based
T1 construct: calcineurinA (1-400, H160N) and NFATc2 (1-415) in Jurkat T-cells; expressed in transfected cells; host or cells: Jurkat T-cells
T1 sequence (Q13469 1-415): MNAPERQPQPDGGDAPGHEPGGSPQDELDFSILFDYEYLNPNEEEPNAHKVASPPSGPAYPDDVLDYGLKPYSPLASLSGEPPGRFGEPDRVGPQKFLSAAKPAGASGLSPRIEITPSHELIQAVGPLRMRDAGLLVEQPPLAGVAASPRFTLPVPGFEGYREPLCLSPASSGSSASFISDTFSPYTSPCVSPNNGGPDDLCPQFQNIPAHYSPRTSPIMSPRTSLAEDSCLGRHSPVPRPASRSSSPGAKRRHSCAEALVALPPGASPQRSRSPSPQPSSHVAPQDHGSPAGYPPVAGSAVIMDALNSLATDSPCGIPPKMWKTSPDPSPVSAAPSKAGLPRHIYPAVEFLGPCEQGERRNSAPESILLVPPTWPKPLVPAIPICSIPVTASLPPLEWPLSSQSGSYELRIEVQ

[5] = test system: CRAC channel (CRACM1, CRACM2, CRACM3 with STIM1); experiment: Patch-clamp of reconstituted CRAC current in HEK293 cells; format: cell-based; conditions: CRACM1, CRACM2 or CRACM3 with STIM1 in HEK293 cells
Description: (§1) Patch pipettes, pulled from glass capillaries (inner diameter 1.5 mm, Kimble products) with a horizontal puller (Sutter instruments, Modell P-97), were fire-polished, and had resistances between 2 and 4 MOhm. Patch-clamp experiments were performed in the tight-seal whole-cell configuration at room temperature (22-24° C.). High-resolution current recordings were acquired by a computer-based patch-clamp amplifier system (EPC-9, HEKA). Immediately following establishment of the whole-cell configuration, every two seconds voltage ramps of 50 ms duration spanning the voltage range of −100 to +100 mV for Jurkat T-cells and −150 to +150 mV for HEK293 were delivered from a holding potential (Vh) of −70 mV for Jurkats and 0 mV for HEK293 cells over a period of 300-600 s. […] Capacitive currents and series resistance were determined and corrected before each voltage ramp using the automatic capacitance compensation of the EPC-9. […] Kv1.3 currents in Jurkat T-cells were measured at +80 mV. Heterologously expressed Kv1.1, Kv1.2, Kv1.3, Kv1.5 and Kv3.1 were assessed at +80 mV except in Figure S7, where currents were additionally measured at the more physiological voltage of 0 mV. CRAC currents in HEK293 cells were assessed at −80 mV. […]

Kv1.3 = biological target: T2, Kv1.3 (Homo sapiens, UniProt P22001); experiment: Patch-clamp of Kv1.3 currents in Jurkat T-cells; format: cell-based
T2 construct: endogenous in cells; host or cells: Jurkat T-cells
T2 sequence (P22001 whole entry): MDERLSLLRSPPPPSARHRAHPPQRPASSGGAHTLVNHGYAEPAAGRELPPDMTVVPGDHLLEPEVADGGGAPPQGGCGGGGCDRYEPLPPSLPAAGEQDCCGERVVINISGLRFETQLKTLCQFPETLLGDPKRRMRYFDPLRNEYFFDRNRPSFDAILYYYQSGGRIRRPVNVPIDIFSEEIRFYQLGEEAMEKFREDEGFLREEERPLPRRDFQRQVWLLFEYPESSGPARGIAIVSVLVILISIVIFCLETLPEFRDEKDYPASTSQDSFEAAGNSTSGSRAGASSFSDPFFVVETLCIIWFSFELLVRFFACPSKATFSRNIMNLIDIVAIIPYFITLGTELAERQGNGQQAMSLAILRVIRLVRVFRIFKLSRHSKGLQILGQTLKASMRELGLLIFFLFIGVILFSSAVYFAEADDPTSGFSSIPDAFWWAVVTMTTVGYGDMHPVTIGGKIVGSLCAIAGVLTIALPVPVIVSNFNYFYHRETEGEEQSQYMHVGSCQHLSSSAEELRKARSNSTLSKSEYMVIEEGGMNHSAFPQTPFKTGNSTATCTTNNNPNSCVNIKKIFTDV
Description: as §1

mouse Kv1.3 = biological target: T3, mouse Kv1.3 (Mus musculus, UniProt P16390); experiment: Patch-clamp of heterologous mouse Kv1.3 expressed in L929 cells; format: cell-based
T3 construct: expressed in transfected cells; host or cells: L929 cells
T3 sequence (P16390 whole entry): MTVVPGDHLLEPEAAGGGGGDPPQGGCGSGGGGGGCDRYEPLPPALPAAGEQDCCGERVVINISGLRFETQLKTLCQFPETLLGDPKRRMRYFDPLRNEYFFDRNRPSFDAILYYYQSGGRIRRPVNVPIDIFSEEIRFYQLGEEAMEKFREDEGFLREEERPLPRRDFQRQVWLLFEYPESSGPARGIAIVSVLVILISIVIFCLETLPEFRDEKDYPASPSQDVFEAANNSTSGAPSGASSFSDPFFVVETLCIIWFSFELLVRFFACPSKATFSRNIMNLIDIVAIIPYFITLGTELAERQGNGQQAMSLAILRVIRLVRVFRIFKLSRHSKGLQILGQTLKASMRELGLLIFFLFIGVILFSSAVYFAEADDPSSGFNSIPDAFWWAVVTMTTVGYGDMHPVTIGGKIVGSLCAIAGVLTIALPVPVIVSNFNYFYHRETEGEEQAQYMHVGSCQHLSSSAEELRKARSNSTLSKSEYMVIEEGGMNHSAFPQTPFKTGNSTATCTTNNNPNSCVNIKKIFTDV
Description: as §1

mouse Kv1.1 = biological target: T4, mouse Kv1.1 (Mus musculus, UniProt P16388); experiment: Patch-clamp of mouse Kv1.1 stably expressed in L929 cells; format: cell-based
T4 construct: expressed in transfected cells; host or cells: L929 cells
T4 sequence (P16388 whole entry): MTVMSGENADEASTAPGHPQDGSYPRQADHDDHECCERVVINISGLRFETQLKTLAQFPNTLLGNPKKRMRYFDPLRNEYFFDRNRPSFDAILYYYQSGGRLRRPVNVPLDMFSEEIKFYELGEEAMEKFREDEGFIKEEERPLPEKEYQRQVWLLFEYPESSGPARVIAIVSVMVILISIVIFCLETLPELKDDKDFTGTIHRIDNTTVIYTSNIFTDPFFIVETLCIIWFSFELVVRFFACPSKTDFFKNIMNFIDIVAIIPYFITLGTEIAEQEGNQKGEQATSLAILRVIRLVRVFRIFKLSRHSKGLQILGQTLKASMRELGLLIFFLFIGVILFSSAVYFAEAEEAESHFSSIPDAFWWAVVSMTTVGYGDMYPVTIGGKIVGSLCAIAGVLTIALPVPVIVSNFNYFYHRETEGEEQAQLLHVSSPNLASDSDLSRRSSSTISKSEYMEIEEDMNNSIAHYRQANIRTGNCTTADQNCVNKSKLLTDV
Description: as §1

rat Kv1.2 = biological target: T5, rat Kv1.2 (Rattus norvegicus, UniProt P63142); experiment: Patch-clamp of heterologous rat Kv1.2 expressed in B82 cells; format: cell-based
T5 construct: expressed in transfected cells; host or cells: B82 cells
T5 sequence (P63142 whole entry): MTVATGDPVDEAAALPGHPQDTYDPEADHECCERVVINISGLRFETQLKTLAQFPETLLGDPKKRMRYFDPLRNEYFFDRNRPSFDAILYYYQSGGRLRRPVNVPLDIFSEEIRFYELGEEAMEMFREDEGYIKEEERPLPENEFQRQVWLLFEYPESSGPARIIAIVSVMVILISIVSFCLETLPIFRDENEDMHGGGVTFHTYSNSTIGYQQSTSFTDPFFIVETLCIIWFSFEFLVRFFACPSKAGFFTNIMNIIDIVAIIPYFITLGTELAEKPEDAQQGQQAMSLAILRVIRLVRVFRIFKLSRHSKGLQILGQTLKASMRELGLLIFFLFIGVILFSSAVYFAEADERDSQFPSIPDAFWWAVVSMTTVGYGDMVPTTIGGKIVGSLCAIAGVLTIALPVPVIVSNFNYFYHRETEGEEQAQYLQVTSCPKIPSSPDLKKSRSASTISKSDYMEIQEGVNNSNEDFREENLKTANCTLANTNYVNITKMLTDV
Description: as §1

human Kv1.5 = biological target: T6, human Kv1.5 (Homo sapiens, UniProt P22460); experiment: Patch-clamp of heterologous human Kv1.5 expressed in MEL cells; format: cell-based
T6 construct: expressed in transfected cells; host or cells: MEL cells
T6 sequence (P22460 whole entry): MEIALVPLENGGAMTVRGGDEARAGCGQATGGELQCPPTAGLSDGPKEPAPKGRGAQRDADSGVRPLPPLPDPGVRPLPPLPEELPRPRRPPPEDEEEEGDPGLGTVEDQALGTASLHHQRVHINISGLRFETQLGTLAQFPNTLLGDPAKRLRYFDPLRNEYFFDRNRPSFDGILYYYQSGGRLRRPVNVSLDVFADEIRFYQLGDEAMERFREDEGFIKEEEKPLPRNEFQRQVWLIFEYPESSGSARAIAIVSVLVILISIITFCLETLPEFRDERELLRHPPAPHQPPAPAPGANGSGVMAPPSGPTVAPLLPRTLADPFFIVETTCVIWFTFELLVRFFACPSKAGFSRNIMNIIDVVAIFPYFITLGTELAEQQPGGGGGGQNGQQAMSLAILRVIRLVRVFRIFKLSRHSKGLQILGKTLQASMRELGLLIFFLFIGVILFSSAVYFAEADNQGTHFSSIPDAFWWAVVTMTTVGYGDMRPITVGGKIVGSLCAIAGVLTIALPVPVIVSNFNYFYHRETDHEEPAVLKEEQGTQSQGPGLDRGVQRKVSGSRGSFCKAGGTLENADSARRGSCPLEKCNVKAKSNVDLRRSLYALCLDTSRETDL
Description: as §1

mouse Kv3.1 = biological target: T7, mouse Kv3.1 (Mus musculus, UniProt P15388); experiment: Patch-clamp of heterologous mouse Kv3.1 expressed in L929 cells; format: cell-based
T7 construct: expressed in transfected cells; host or cells: L929 cells
T7 sequence (P15388 whole entry): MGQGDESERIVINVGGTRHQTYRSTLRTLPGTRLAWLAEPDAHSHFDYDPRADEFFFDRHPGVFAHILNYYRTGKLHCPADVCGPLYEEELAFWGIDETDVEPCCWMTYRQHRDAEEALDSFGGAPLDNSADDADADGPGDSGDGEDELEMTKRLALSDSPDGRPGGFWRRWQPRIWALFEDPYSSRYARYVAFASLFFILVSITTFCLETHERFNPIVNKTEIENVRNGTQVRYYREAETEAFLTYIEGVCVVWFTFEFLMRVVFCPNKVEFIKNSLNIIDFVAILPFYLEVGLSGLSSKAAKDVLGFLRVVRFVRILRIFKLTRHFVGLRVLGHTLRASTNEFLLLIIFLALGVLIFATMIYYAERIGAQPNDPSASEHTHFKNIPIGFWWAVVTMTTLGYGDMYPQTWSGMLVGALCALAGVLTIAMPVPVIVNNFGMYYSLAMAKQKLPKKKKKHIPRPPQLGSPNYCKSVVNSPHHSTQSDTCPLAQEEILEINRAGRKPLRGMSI
Description: as §1

TRPM4 channel = TRPM4 channel (Homo sapiens, UniProt Q8TD43); experiment: Activity of TRPM4 channel (data not shown); format: cell-based; conditions: up to 10 μM
[6] = test system: mouse skin or heart transplant; experiment: Mouse skin or heart transplant models (initial experiments); format: in vivo
mouse primary T-cells = experiment: IL-2 production from anti-CD3/anti-CD28-stimulated mouse primary T-cells; format: cell-based; conditions: n=3
[7] = test system: mouse mixed lymphocyte reaction; experiment: Murine mixed lymphocyte reaction; format: cell-based; conditions: n=3
[8] = test system: IL-2 proximal promoter driven-luciferase; experiment: IL-2 luciferase reporter assay in Jurkat T-cells (PMA/ionomycin); format: cell-based, human; conditions: for IC50: n=6

With `CC(C)/N=c1\cc2n(-c3ccc(Cl)cc3)c3ccccc3nc-2cc1Nc1ccc(Cl)cc1` [clofazimine, Clofazimine] the IC50 [1] was 1.1 ± 0.26 µM, the IC50 (NFAT luciferase reporter) was 0.113 ± 0.03 µM and the “NF-κB luciferase reporter less sensitive than IL-2 promoter-driven reporter” value [2] was “about 40 fold”. The IC50 ([2]; Homo sapiens, Jurkat, PMA/ionomycin, n=6) was 2.43 ± 1.25 µM, the “effect on AP-1 luciferase reporter” value (AP-1 luciferase reporter) was “enhanced, rather than inhibited” and the “effect on AP-1 luciferase reporter” value (AP-1 luciferase reporter; listed as Clofazimine) was “significantly enhances”. The “effect on binding of GST-NFATc2 to calcineurin” value [3] was “Nor did it affect the binding; also recorded: does not interfere with calcineurin-NFATc2 interaction”, the “effect on calcium-dependent NFAT-calcineurin interaction” value [4] was “inhibited the calcium-dependent NFAT-calcineurin interaction in a dose-dependent manner” and the “effect on calcium-dependent NFAT-calcineurin interaction” value ([4]; listed as Clofazimine) was “inhibits the calcium-dependent enhancement”. The “effect on reconstituted CRAC current” value [5] was “no effects”, the “effect on reconstituted CRAC current” value ([5]; listed as Clofazimine) was “without affecting” and the “Hill coefficient, Kv1.3 current” value (Kv1.3) was 0.75. The IC50 (Kv1.3; current at +80 mV, inhibition at 120 s, read-out: IC50, Kv1.3 potassium current) was 0.3 µM, the “Hill coefficient, mouse Kv1.3” value (mouse Kv1.3) was 0.5 and the IC50 (mouse Kv1.3; +80 mV) was 0.47 µM. For the same compound, the “block of current, mouse Kv1.1” value (mouse Kv1.1; 10 μM) was “less than 50%”, the IC50 (mouse Kv1.1; inferred from block at 10 μM) was over 10 µM and the “block of current, rat Kv1.2” value (rat Kv1.2; 10 μM) was “less than 50%”. For the same compound, the IC50 (rat Kv1.2; inferred from block at 10 μM) was over 10 µM, the “block of current, human Kv1.5” value (human Kv1.5; 10 μM) was “less than 50%” and the IC50 (human Kv1.5; inferred from block at 10 μM) was over 10 µM. The “block of current, mouse Kv3.1” value (mouse Kv3.1; 10 μM) was “less than 50%”, the IC50 (mouse Kv3.1; inferred from block at 10 μM) was over 10 µM and the “effect on TRPM4 channel activity” value (TRPM4 channel) was “remained unaffected”. The “beneficial effects in mouse skin or heart transplant models” value [6] was “failed to show any beneficial effects”, the “inhibition of IL-2 production in primary mouse T-cells” value (mouse primary T-cells) was “failed to observe a dose-dependent inhibition” and the “effect on murine mixed lymphocyte reaction” value [7] was “failed to observe a dose-dependent inhibition; also recorded: Biphasic effects”. For the same compound, the IC50 ([8]; Homo sapiens, Jurkat, Kv1.3 overexpression low to high, 1st curve, read-out: IC50, IL-2 luciferase reporter, Kv1.3 overexpression) was 0.0416 ± 0.0084 µM, the IC50 ([8]; Homo sapiens, Jurkat, Kv1.3 overexpression low to high, 2nd curve, read-out: IC50, IL-2 luciferase reporter, Kv1.3 overexpression) was 0.041 ± 0.0145 µM and the IC50 ([8]; Homo sapiens, Jurkat, Kv1.3 overexpression low to high, 3rd curve, read-out: IC50, IL-2 luciferase reporter, Kv1.3 overexpression) was 0.386 ± 0.214 µM. The IC50 ([8]; Homo sapiens, Jurkat, Kv1.3 overexpression low to high, 4th curve, read-out: IC50, IL-2 luciferase reporter, Kv1.3 overexpression) was 1.37 ± 0.52 µM, the IC50 ([8]; Homo sapiens, Jurkat, Kv1.3 overexpression low to high, 5th (highest) curve, read-out: IC50, IL-2 luciferase reporter, Kv1.3 overexpression) was 1.46 ± 0.63 µM and the IC50 ([8]; Homo sapiens, Jurkat, PMA/ionomycin-stimulated Jurkat T-cells, FIG. 1A, read-out: IC50, IL-2 luciferase reporter) was 0.0218 ± 0.0044 µM. The IC50 ([8]; Homo sapiens, Jurkat, control EGFP-siRNA lentiviral transduced Jurkat T-cells, read-out: IC50, IL-2 luciferase reporter) was 0.0499 ± 0.013 µM, the IC50 ([8]; Homo sapiens, Jurkat, shKv1.3-4 (Kv1.3 knockdown) transduced Jurkat T-cells, read-out: IC50, IL-2 luciferase reporter) was 0.0105 ± 0.0024 µM and the IC50 ([8]; Homo sapiens, Jurkat, PMA/ionomycin, FIG. 1C, read-out: IC50, IL-2 luciferase reporter) was 0.056 ± 0.0148 µM. The IC50 ([8]; PMA/ionomycin-stimulated Jurkat T-cells, FIG. 1A, read-out: IC50, IL-2 luciferase reporter) was 0.022 µM, the “increase in IC50 value upon Kv1.3 overexpression” value ([8]; highest Kv1.3 expression plasmid (2 μg)) was 35 fold and the “decrease in IC50 values upon Kv1.3 knockdown” value ([8]; shKv1.3-4 vs shRNA against EGFP) was about 5 fold.
